Test results: ChEMBL document CHEMBL5154642, “Development of [18F]MIPS15692, a radiotracer with in vitro proof-of-concept for the imaging of MER tyrosine kinase (MERTK) in neuroinflammatory disease” (Eur J Med Chem, 2021)

Assays:
[1] = Drug uptake in Swiss outbred mouse brain assessed as time required to reach peak value at 3 mg/kg, iv measured after 60 mins by LC-MS/MS analysis; assay type: ADME, organism-based
[2] = Drug uptake in brain of cuprizone-challenged C57BL/6 mouse at 4.4 mg/kg, iv by PET imaging measured upto 2 mins; assay type: ADME, organism-based; details: in vivo
[3] = target: T1, Tyrosine-protein kinase Mer (Mus musculus, UniProt Q60805); assay: Binding affinity to MERTK in cuprizone-challenged C57BL/6 mouse brain CC/HC region assessed as dissociation constant at 18.1 nM by autoradiography; assay type: tissue-based
T1 sequence (Q60805 whole entry): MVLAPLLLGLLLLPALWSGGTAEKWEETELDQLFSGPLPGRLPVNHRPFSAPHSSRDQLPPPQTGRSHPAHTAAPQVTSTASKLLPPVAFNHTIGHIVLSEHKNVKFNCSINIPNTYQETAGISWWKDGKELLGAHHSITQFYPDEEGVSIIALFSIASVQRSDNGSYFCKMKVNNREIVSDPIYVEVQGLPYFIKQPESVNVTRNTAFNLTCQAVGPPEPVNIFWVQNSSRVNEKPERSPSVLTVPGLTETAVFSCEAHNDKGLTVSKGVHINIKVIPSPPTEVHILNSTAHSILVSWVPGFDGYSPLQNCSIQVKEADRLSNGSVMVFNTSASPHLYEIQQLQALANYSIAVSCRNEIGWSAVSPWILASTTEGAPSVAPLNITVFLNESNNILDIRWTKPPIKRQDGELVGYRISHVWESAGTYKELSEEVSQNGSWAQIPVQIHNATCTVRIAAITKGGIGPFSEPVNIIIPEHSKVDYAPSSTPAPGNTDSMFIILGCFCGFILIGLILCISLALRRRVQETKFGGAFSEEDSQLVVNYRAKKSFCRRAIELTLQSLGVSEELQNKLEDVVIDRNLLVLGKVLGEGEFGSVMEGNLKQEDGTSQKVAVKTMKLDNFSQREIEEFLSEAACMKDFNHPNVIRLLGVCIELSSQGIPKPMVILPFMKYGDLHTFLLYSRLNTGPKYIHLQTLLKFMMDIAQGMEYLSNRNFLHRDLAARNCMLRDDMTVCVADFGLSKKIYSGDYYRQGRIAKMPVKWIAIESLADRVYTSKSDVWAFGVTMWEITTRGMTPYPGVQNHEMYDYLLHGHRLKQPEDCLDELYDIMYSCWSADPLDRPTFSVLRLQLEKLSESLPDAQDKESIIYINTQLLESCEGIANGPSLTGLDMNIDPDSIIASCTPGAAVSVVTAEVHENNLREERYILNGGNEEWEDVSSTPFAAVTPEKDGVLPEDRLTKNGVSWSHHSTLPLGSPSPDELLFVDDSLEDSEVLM

[4] = target: T1, Tyrosine-protein kinase Mer; assay: Binding affinity to MERTK in cuprizone-challenged C57BL/6 mouse whole brain assessed as dissociation constant at 18.1 nM by autoradiography; assay type: tissue-based
[5] = Drug uptake in liver of cuprizone-challenged C57BL/6 mouse at 4.4 mg/kg, iv by PET imaging; assay type: ADME, organism-based; details: in vivo
[6] = Retention time of the compound by HPLC analysis; assay type: physicochemical
[7] = Retention time of the compound by UV-Vis spectroscopy analysis; assay type: physicochemical
[8] = Drug uptake in heart of cuprizone-challenged C57BL/6 mouse at 4.4 mg/kg, iv by PET imaging; assay type: ADME, organism-based; details: in vivo
[9] = Unbound brain-to-plasma concentration ratio in Swiss outbred mouse at 4.4 mg/kg, iv measured after 2 hrs; assay type: ADME, organism-based; details: read-out: K(p,uu,brain)
[10] = target: T2, Tyrosine-protein kinase Mer (Mus musculus) (UniProt Q60805); assay: Binding affinity to MERTK in cuprizone-challenged C57BL/6 mouse brain CC/HC region assessed as maximum binding at 18.1 nM by autoradiography; assay type: tissue-based; details: tested as the 18F-labelled form
T2 sequence (whole entry): T1 sequence (Q60805 whole entry)

[11] = target: T2, Tyrosine-protein kinase Mer (Mus musculus); assay: Binding affinity to MERTK in cuprizone-challenged C57BL/6 mouse whole brain assessed as maximum binding at 18.1 nM by autoradiography; assay type: tissue-based; details: tested as the 18F-labelled form

Drug uptake [2] [%] | Kd [3] [nM] | Kd [4] [nM] | Drug uptake [5] | Retention_time [6] [min] | Retention_time [7] [min] | Drug uptake [8] | Kp uu at 2 h [9] | Bmax [10] [fmol/mg] | Bmax [11] [fmol/mg] | Structure (SMILES) | Tmax [1] [min]
– | – | – | – | – | – | – | – | – | – | CCCCNc1ncc(C(=O)NC2CCN(CCF)CC2)c(N[C@H]2CC[C@H](O)CC2)n1 | 15
0.023 | 19.7 | 12.6 | <= 0.24% | 18.57 | 18.8 | <= 0.24% | – | – | – | CCCCNc1ncc(C(=O)NC2CCN(CCC[18F])CC2)c(N[C@H]2CC[C@H](O)CC2)n1 | –
– | – | – | – | – | – | – | > 1 | 896 | 422 | CCCCNc1ncc(C(=O)NC2CCN(CCCF)CC2)c(N[C@H]2CC[C@H](O)CC2)n1 | 15
